Consider one molecule from patent US20060141067A1, “Anti-allergic herbal formulation” (priority 2004, published 2006).

The assay deals with mast cell. Description: Mast cell degranulation in rats (histamine released). Format: in vivo. The conditions noted are these: 25 mg/kg p.o., mean ± S.E.M. As for the experimental part:
Mast cell degranulation: Tyrode solution (10 ml) containing 5 units/ml of heparin was injected in the peritoneal cavity of sensitized male rats lightly anaesthetized with ether. After a gentle abdominal massage for about 30 to 45 sec, the mast cell rich peritoneal fluid was collected over ice and centrifuged at 2000 rpm for 5 min. The cells were washed thrice with chilled Tyrode and resuspended in about 1 ml of Tyrode solution. The peritoneal fluid was obtained from 10 rats and the final volume of the fluid was pooled and used for the studies (Nair A M et al, 1997).

The structures appear in SMILES notation. Marks after values point to notes of the source that are not given here.

Turning to `CN(C)CCC(c1ccccc1)c1ccccn1.O=C(O)/C=C\C(=O)O` (stereo not shown) [Avil], the Histamine released is 0.345 ± 0.04^b μg/ml.
